The record followed here is ChEMBL document CHEMBL5154709, “Tetrazole derivatives bearing benzodiazepine moiety-synthesis and action mode against virulence of Candida albicans” (Eur J Med Chem, 2022).

Usually inhibition stands for the drop in the measured response relative to a control, in per cent. One may read the MIC as the smallest concentration in the dilution series that meets the test's criterion for growth inhibition.

In data set [1] the test system is Candida albicans. Nature of the data set: In vivo antifungal activity against Candida albicans SC5314 infected in Galleria mellonella larvae assessed as prevention of candidiasis at 16 ug/ml administered 1 hr post infection measured after 5 days by Hematoxylin and eosin staining. Type of data set: functional, organism-based. To be noted: dose 16.0 µg/ml, time 5.0 day.

Data set [2] has as its system Candida albicans. Briefly: Fungicidal activity against Candida albicans SC5314 assessed as inhibition of fungal growth incubated for 48 hrs by M27-A3 based microdilution method. It counts as functional. In general terms: Broth dilution looks for growth in wells or tubes with falling amounts of substance.
In data set [3] the test system is Candida albicans. Briefly: Antifungal activity against Candida albicans SC5314 assessed as inhibition of fungal growth at 1 ug/ml incubated for 18 hrs by M27-A3 based microdilution method relative to control. It counts as functional.
The subject of data set [4] is Candida albicans. Briefly: Antifungal activity against Candida albicans SC5314 assessed as inhibition of fungal growth at 0.5 ug/ml incubated for 18 hrs by M27-A3 based microdilution method relative to control. Type of data set: functional.
Data set [5] deals with Candida albicans. Briefly: Antifungal activity against Candida albicans SC5314 assessed as inhibition of fungal growth at 0.25 ug/ml incubated for 18 hrs by M27-A3 based microdilution method relative to control. It counts as functional.
Data set [6] concerns Candida albicans. Briefly: Antifungal activity against Candida albicans SC5314 assessed as inhibition of fungal growth at 0.0625 ug/ml incubated for 48 hrs by M27-A3 based microdilution method relative to control. Type of data set: functional.
In data set [7] the test system is Candida albicans. Nature of the data set: Antifungal activity against Candida albicans SC5314 assessed as inhibition of fungal growth at 0.03125 ug/ml incubated for 18 hrs by M27-A3 based microdilution method relative to control. It counts as functional.
Data set [8] has as its system Candida albicans. Nature of the data set: Induction of apoptosis in Candida albicans SC5314 protoplast cells assessed as necrotic cells at 16 ug/ml incubated for 18 hrs by PI/Annexin V staining based flow cytometry assay. It counts as functional. To be noted: dose 16 µg/ml. In general terms: A flow cytometer gives signals particle by particle.
Data set [9] concerns Candida albicans. Nature of the data set: Induction of reactive oxygen species generation in Candida albicans cnb1delta/cnb1delta mutant assessed as increase in ROS level at 16 ug/ml incubated for 18 hrs by DCFH-DA staining based flow cytometric analysis (reference value: 4.7+/- 5.9%). It counts as functional. To be noted: dose 16 µg/ml.
In data set [10] the test system is Candida albicans. Nature of the data set: Antifungal against Candida albicans SC5314 biofilm co-cultured with African green monkey Vero cells assessed as accidental cell death in pseudohyphal cells by measuring orange fluorescence emission at 16 ug/ml incubated for 18 hrs by PI/acridine orange double staining based confocal laser scanning microscopic analysis. It counts as functional, organism-based. As to conditions: dose 16.0 µg/ml.

In data set [11] the test system is Candida albicans. Nature of the data set: Induction of macrophage-mediated Candida albicans SC5314 phagocytosis assessed as change in chitin at 16 ug/ml incubated for 18 hrs in presence of mouse RAW264.7 macrophages by PI/Acridine orange double staining based confocal laser scanning microscopic analysis. Type of data set: functional. To be noted: dose 16.0 µg/ml.

The nature of data set [12]: Cytotoxicity against human TR146 cells at more than 64 ug/ml measured after 24 hrs by XTT assay. Type of data set: toxicity, cell-based. To be noted: tr146, 24 h, dose 64 µg/ml. A general note: Formazan colour is commonly taken as a measure of viable cells.
Data set [13] can be described thus: Toxicity in Galleria mellonella larvae assessed as melanization of larvae at 16 ug/ml measured every 24 hrs upto 5 days relative to control. As to conditions: 120 h, at 16 µg/mL, time < 5 day.
Data set [14] concerns Candida albicans. Nature of the data set: In vivo antifungal activity against Candida albicans SC5314 infected in Galleria mellonella larvae assessed as survival of larvae by measuring health score index at 16 ug/ml administered 1 hr post infection measured within 5 days by Hematoxylin and eosin staining. To be noted: dose 16.0 µg/ml, time 5.0 day. It counts as functional, organism-based.

The test system of data set [15] is Candida albicans. Briefly: Antifungal activity against Candida albicans assessed as inhibition of fungal growth measured after 48 hrs by M27-A3 based broth microdilution. It counts as functional.
Data set [16] has as its system Candida albicans. Nature of the data set: Effect on HSP90 expression in Candida albicans BWP17 assessed as decrease in relative expression of HSP90 gene level at 2 ug/ml incubated for 18 hrs by RT-PCR analysis. To be noted: dose 2.0 µg/ml. It counts as functional.
Data set [17] has as its system Candida albicans. Briefly: Effect on HSP90 expression in Candida albicans cnb1delta/CNB1 mutant assessed as decrease in relative expression of HSP90 gene level at 2 ug/ml incubated for 18 hrs by RT-PCR analysis. Type of data set: functional. As to conditions: dose 2.0 µg/ml.
The subject of data set [18] is Candida albicans. Briefly: Effect on HSP90 expression in Candida albicans cnb1delta/cnb1delta mutant assessed as fold increase in relative expression of HSP90 gene level at 2 ug/ml incubated for 18 hrs in presence of calcium chloride by RT-PCR analysis. It counts as functional. To be noted: dose 2.0 µg/ml.
Data set [19] relates to Candida albicans. Briefly: Effect on HSP90 expression in Candida albicans cnb1delta/CNB1 mutant assessed as fold increase in relative expression of HSP90 gene level at 2 ug/ml incubated for 18 hrs in presence of calcium chloride by RT-PCR analysis. Type of data set: functional. As to conditions: dose 2.0 µg/ml.
In data set [20] the test system is Candida albicans. Nature of the data set: Downregulation of HSP90 gene expression in Candida albicans cnb1delta/CNB1 mutant at 2 ug/ml incubated for 6 hrs in presence of calcium chloride by RT-PCR analysis. Type of data set: functional. To be noted: dose 2.0 µg/ml.

Converted amounts (≈) assume the structure as drawn. The source made the active and inactive calls.

Turning to `O=C1CN=C(c2ccccc2Br)c2cc(F)ccc2N1CCCn1nnc(-c2ccccc2Cl)n1`, the outcome in the data set on Candida albicans [1], with Candida albicans [10], with Candida albicans [11], in the data set with Candida albicans [14], with Candida albicans [16] and with Candida albicans [17] was Active. In the data set on Candida albicans [20], the outcome was Active. In addition, the “inhibition (INH)” value in the data set with Candida albicans [2] is 99.6%. The inhibition at 1 µg/mL in the data set on Candida albicans [3] is 99.1%. Besides, the inhibition at 0.5 µg/mL in the data set on Candida albicans [4] was 99.2%. Moreover, the inhibition at 0.25 µg/mL in the data set on Candida albicans [5] came out at 100%. Further, in the data set with Candida albicans [6], the inhibition at 0.0625 µg/mL amounted to 99.4%. The inhibition at 0.03125 µg/mL in the data set on Candida albicans [7] was 100%. In addition, the Activity in the data set with Candida albicans [8] is reported as 78.5%; in the data set on Candida albicans [9], 2.95%; in data set [12], “Non-Toxic”; in data set [13], 7%. In the data set on Candida albicans [15], the MIC amounted to 64 µg/mL (≈ 116 µM). Besides, the fold change (FC) with Candida albicans [18] and in the data set with Candida albicans [19] was 4 throughout.
